Laboratory results from patent US20250332173A1, “COMPOUNDS AND METHODS FOR MODULATING NUCLEIC ACID SPLICING” (REMIX THERAPEUTICS INC., priority 2021, published 2025).
Read-outs that look alike come from different tables or passages of the source.

Tests used:
HTT mRNA = assay: RT-qPCR splicing assay, HTT canonical junction (CJ) and alternative junction (AJ) mRNA; type: cell-based, human; details: Homo sapiens; for AC50: increase in HTT alternative junction (AJ) mRNA, read-out: HTT AJ AC50
Summary of the method: (§1)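 A673 cells (normalized to PPIA) or K562 cells (normalized to GAPDH or GUSB) were treated 24 h at 37 °C with an 11-point 3-fold dilution series, top 10 uM, DMSO ≤0.25%. Cell lysates went to one-step RT-qPCR measuring canonical- and alternative-junction MYB or HTT transcripts.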

MYB mRNA = assay: RT-qPCR splicing assay, MYB canonical junction (CJ) and alternative junction (AJ) mRNA; type: cell-based, human; details: Homo sapiens; for AC50: increase in MYB alternative junction (AJ) mRNA, read-out: MYB AJ AC50
Summary of the method: as §1

SMN2 mRNA = assay: RT-qPCR splicing assay, SMN2 canonical junction (CJ) mRNA; type: cell-based, human; details: Homo sapiens; canonical junction qPCR panel, Table 5; read-out: SMN2 (decrease in CJ mRNA levels, IC50)
Summary of the method: (§2)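 A673 cells (DMEM/10% FBS) or K562 cells (IMDM/10% FBS) were treated 24 h at 37° C. with 11-point 3-fold dilutions (top 10 uM, ≤0.25% DMSO). Canonical-junction mRNA was quantified in lysates by RT-qPCR, normalized to GAPDH, GUSB or PPIA.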

Target C = assay: RT-qPCR splicing assay panel, Target C canonical junction (CJ) mRNA; type: cell-based, human; details: Homo sapiens; canonical junction qPCR panel, Table 5; read-out: Target C (decrease in CJ mRNA levels, IC50)
Summary of the method: as §2

[1] = test system: K562 (human chronic myelogenous leukemia) cells; assay: Cell Titer Glo 2.0 cell viability assay; type: cell-based; details: K562 cells, 72 hours, Cell Titer Glo 2.0, read-out: K562 GI50
Description: Compounds described herein were screened for toxicity in K562 (human chronic myelogenous leukemia) cells using a Cell Titer Glo 2.0 assay.
Cells were plated at 500 cells/well (K562 cells) in 45 μL of IMDM supplemented with 1000 FBS in a 384-well opaque plate. Wells containing only medium were used as a blank control. Test compounds (e.g., compounds ofFormula (I), (II), (III), (IV), (V), (VI), (VII), (VIII), and (IX)) were first serially diluted in DMSO then diluted 1:100 with IMDM+10% FBS. The final concentration of DMSO was 0.1% in each well. The cells were incubated for 72 hours at 37° C. and 500 CO2 before assaying with Cell Titer Glo 2.0 reagent.

[2] = decrease in HTT canonical junction (CJ) mRNA, RT-qPCR, read-out: HTT CJ IC50
[3] = canonical junction qPCR panel, Table 5, read-out: HTT (decrease in CJ mRNA levels, IC50)
[4] = canonical junction qPCR panel, Table 5, read-out: MYB (decrease in CJ mRNA levels, IC50)
[5] = decrease in MYB canonical junction (CJ) mRNA, RT-qPCR, read-out: MYB CJ IC50

Row | SMILES | IC50 (HTT mRNA; [2]) [nM] | IC50 (HTT mRNA; [3]) [nM] | IC50 (MYB mRNA; [4]) [nM] | IC50 (MYB mRNA; [5]) [nM] | IC50 (SMN2 mRNA) [nM] | IC50 (Target C) [nM] | GI50 ([1]; Homo sapiens, K562, 72 h) [nM] | GI50 [1] [nM] | AC50 (HTT mRNA; RT-qPCR) [nM] | AC50 (MYB mRNA; RT-qPCR) [nM]
1 | Cn1cc2cc(-c3ncc4c(=O)n(C56CCC(N)(CC5)C6)ccc4n3)c(O)cc2n1 [Compound 1470] | > 10000 | 1000 to 10000 | 100 to 1000 | 100 to 1000 | < 100 | 1000 to 10000 | 100 to 1000 | – | 1000 to 10000 | 100 to 1000
2 | Cc1c(O)c(-c2ncc3c(=O)n([C@@H]4C[C@H]5COC[C@@H](C4)N5)ccc3n2)cc2cn(C)nc12 [Compound 1471] | 100 to 1000 | 100 to 1000 | < 100 | < 100 | < 100 | 100 to 1000 | 100 to 1000 | – | 100 to 1000 | < 100
3 | Cc1c(O)c(-c2ncc3c(=O)n([C@@H]4CC[C@H](N)C4)ccc3n2)cc2cn(C)nc12 [Compound 1477] | 100 to 1000 | < 100 | < 100 | < 100 | < 100 | 100 to 1000 | – | < 100 | < 100 | < 100
4 | CNC12CCC(n3ccc4nc(-c5cc6cn(C)nc6c(C)c5O)ncc4c3=O)(CC1)C2 [Compound 1479] | 1000 to 10000 | 1000 to 10000 | < 100 | 100 to 1000 | < 100 | 1000 to 10000 | < 100 | – | 1000 to 10000 | < 100
5 | CCN1CC[C@@H](n2ncc3nc(-c4cc(C)c5nc(C)cn5n4)ccc3c2=O)CC12CC2 [Compound 1530] | < 100 | < 100 | < 100 | < 100 | < 100 | < 100 | 100 to 1000 | – | < 100 | < 100
6 | Cc1cn2nc(-c3ccc4c(=O)n([C@H]5CCN(C)C6(CC6)C5)ncc4n3)cc(C)c2n1 [Compound 1533] | 100 to 1000 | < 100 | 100 to 1000 | 100 to 1000 | < 100 | 100 to 1000 | 100 to 1000 | – | < 100 | 100 to 1000
7 | Cc1cn2nc(-c3ccc4c(=O)n([C@@H]5CCN(C)C6(CC6)C5)ncc4n3)cc(C)c2n1 [Compound 1534] | < 100 | < 100 | 100 to 1000 | < 100 | < 100 | < 100 | 100 to 1000 | – | < 100 | 100 to 1000

Second part, led by results:

Row | IC50 (HTT mRNA; [2]) [nM] | IC50 (HTT mRNA; [3]) [nM] | IC50 (MYB mRNA; [4]) [nM] | IC50 (MYB mRNA; [5]) [nM] | IC50 (SMN2 mRNA) [nM] | IC50 (Target C) [nM] | GI50 ([1]; Homo sapiens, K562, 72 h) [nM] | GI50 [1] [nM] | SMILES | AC50 (HTT mRNA; RT-qPCR) [nM] | AC50 (MYB mRNA; RT-qPCR) [nM]
8 | 1000 to 10000 | 1000 to 10000 | 100 to 1000 | 100 to 1000 | < 100 | 100 to 1000 | 100 to 1000 | – | Cc1cn2cc(-c3ncc4c(=O)n(C56CCC(N)(CC5)C6)ccc4n3)cc(F)c2n1 [Compound 1469, 6-(4-aminonorbornane-1-yl)-2-(8-fluoro-2-methyl-imidazo[1,2-a]pyridin-6-yl)pyrido[4,3-d]pyrimidin-5-one] | 1000 to 10000 | 100 to 1000
9 | 1000 to 10000 | 100 to 1000 | 100 to 1000 | 100 to 1000 | < 100 | 1000 to 10000 | 100 to 1000 | – | Cc1c(O)c(-c2ncc3c(=O)n([C@@H]4CC[C@@H](N)C4)ccc3n2)cc2cn(C)nc12 [Compound 1476, 6-[(1R,3R)-3-aminocyclopentyl]-2-(6-hydroxy-2,7-dimethyl-indazol-5-yl)pyrido[4,3-d]pyrimidin-5-one] | 100 to 1000 | 100 to 1000
10 | 100 to 1000 | < 100 | 100 to 1000 | 100 to 1000 | < 100 | 100 to 1000 | 100 to 1000 | – | COc1cc(-c2ccc3c(=O)n([C@H]4CCN[C@@H](C)C4)ccc3n2)nn2cc(C)nc12 [Compound 1519, 2-(8-methoxy-2-methyl-imidazo[1,2-b]pyridazin-6-yl)-6-[(2S,4S)-2-methyl-4-piperidyl]-1,6-naphthyridin-5-one] | < 100 | 100 to 1000
11 | 100 to 1000 | 100 to 1000 | 100 to 1000 | 100 to 1000 | < 100 | 100 to 1000 | 100 to 1000 | – | Cc1cn2nc(-c3ccc4c(=O)n([C@@H]5CCN(C)[C@H](C)C5)ncc4n3)cc(C)c2n1 [Compound 1527] | 100 to 1000 | 100 to 1000
12 | 100 to 1000 | 100 to 1000 | 100 to 1000 | 100 to 1000 | 100 to 1000 | 100 to 1000 | 100 to 1000 | – | Cc1cn2nc(-c3ccc4c(=O)n([C@H]5CCN(C)[C@@H](C)C5)ncc4n3)cc(C)c2n1 [Compound 1528, 2-(2,8-dimethylimidazo[1,2-b]pyridazin-6-yl)-6-(1,2-dimethyl-4-piperidyl)pyrido[2,3-d]pyridazin-5-one] | 100 to 1000 | 100 to 1000
13 | 100 to 1000 | < 100 | 100 to 1000 | 100 to 1000 | < 100 | 100 to 1000 | 100 to 1000 | – | CCN1CC[C@H](n2ncc3nc(-c4cc(C)c5nc(C)cn5n4)ccc3c2=O)CC12CC2 [Compound 1531] | < 100 | 100 to 1000
14 | 100 to 1000 | < 100 | 100 to 1000 | 100 to 1000 | < 100 | 100 to 1000 | 1000 to 10000 | – | Cc1cn2nc(-c3ccc4c(=O)n(C5CCN(CCO)C6(CC6)C5)ncc4n3)cc(C)c2n1 (stereo not drawn) [Compound 1541, 2-(2,8-dimethylimidazo[1,2-b]pyridazin-6-yl)-6-[4-(2-hydroxyethyl)-4-azaspiro[2.5]octan-7-yl]pyrido-[2,3-d]pyridazin-5-one] | < 100 | 100 to 1000
15 | 100 to 1000 | 100 to 1000 | 1000 to 10000 | 1000 to 10000 | 100 to 1000 | 1000 to 10000 | 1000 to 10000 | – | Cc1cn2nc(-c3ccc4c(=O)n(C5CCN(CCF)C6(CC6)C5)ncc4n3)cc(C)c2n1 (stereo not drawn) [Compound 1542, 2-(2,8-dimethylimidazo[1,2-b]pyridazin-6-yl)-6-[4-(2-fluoroethyl)-4-azaspiro[2.5]octan-7-1]pyrido[2,3-d]pyridazin-5-one] | 100 to 1000 | 1000 to 10000
16 | < 100 | < 100 | 100 to 1000 | 100 to 1000 | < 100 | 100 to 1000 | 100 to 1000 | – | Cc1cn2nc(-c3ccc4c(=O)n(C5CCN(CC6CC6)C6(CC6)C5)ncc4n3)cc(C)c2n1 (stereo not drawn) [Compound 1543, 6-[4-(cyclopropylmethyl)-4-azaspiro[2.5]octan-7-yl]-2-(2,8-dimethylimidazo[1,2-b]pyridazin-6-yl)pyrido[2,3-d]pyridazin-5-one] | < 100 | 100 to 1000
